Data set [1] deals with CYP2D6 (Homo sapiens, UniProt P10635). As to the kind of experiment: CYP Inhibition. Conditions: human. On the procedure:
(§1) The working solutions of the test compounds and the standard inhibitors were prepared in DMSO (100× final concentration). 20 ul of substrate solution (5 in 1 cocktail) was added to the wells followed by 2 ul test compound solution was added. 158 ul of human liver microsome (HLM) was added to all the wells of the incubated plate and warmed to 37° C. for 10 mins. 20 ul of NADPH cofactor solution was then added to all the wells of incubated plate and incubated at 37° C. for 10 mins. At the time point the reaction was quenched by adding 400 uL of cold stop solution. The samples were centrifuged at 4000 rpm for 20 mins to precipitate protein. 100 ul supernatant was diluted with 100 ul of ultra pure water and analyzed using LCMS.

Data set [2] deals with human red blood cells and primary hREC. In words: Toxicity to human cells. In kind it is cell-based. From the text:
(§2) This key discovery opened a path to the rational development of a non-toxic AmB variant. To probe its predicted role in sterol binding, the hydroxyl group was synthetically deleted at the C2′ position on the mycosamine appendage. […] Consistent with the sterol sponge model, this derivative retained good activity against yeast but, most importantly, was nontoxic to human red blood cells and primary (hREC) (FIG. 2B).
(§3) A practical 11-step synthesis of C2′epiAmB using a frontier site-selective acylation method was developed (FIG. 4). Wilcock, B. C. et al., Nat Chem 2012, 4 (12), 996-1003; Uno, B. E. A synthesis enabled understanding of Amphotericin B leading to derivatives with improved therapeutic indices. University of Illinois at Urbana-Champaign, 2014. The sterol binding and cell killing activities was then determined.

For data set [3], the system named is C. albicans SN250. As to the kind of experiment: MIC. In kind it is cell-based, Candida albicans.
Data set [4] has as its system 40 Aspergillus clinical isolates, including azole-resistant A. fumigatus, A. flavus, and A. terreus. In words: Antifungal testing against 40 Aspergillus clinical isolates (Fungus Testing Laboratory). In kind it is cell-based.
A short description of data set [5]: isothermal titration calorimetry (ITC) sterol binding. To be noted: for Cholesterol binding by ITC: within the detection limits of ITC.
From the text: as §2, §3

The subject of data set [6] is human erythrocytes. In words: MHC hemolysis assay. In kind it is cell-based. To be noted: hemolysis, human erythrocytes, 37° C. 2 hours. On the procedure:
MHC (FIG. 21B): The protocol for the hemolysis assay was adapted from the report of Paquet and coworkers (Chem. Eur. J. 2008, 14, 2465-2481). Whole human blood (sodium heparin) was purchased from Bioreclamation LLC (Westbury, N.Y.) and stored at 4° C. and used within two days of receipt. To a 2.0 mL eppendorf tube, 1 mL of whole human blood was added and centrifuged at 10,000 g for 2 minutes. The supernatant was removed and the erythrocyte pellet was washed with 1 mL of sterile saline and centrifuged at 10,000 g for 2 minutes. The saline wash was repeated for a total of three washes. The erythrocyte pellet was suspended in 1 mL of RBC buffer (10 mM NaH2PO4, 150 mM NaCl, 1 mM MgCl2, pH 7.4) to form the erythrocyte stock suspension.
Compounds were prepared as >15 mM stock solutions in DMSO and serially diluted to the following concentrations with DMSO: 7689, 5126, 2563, 2050, 1538, 1025, 769, 513, 384, 256, 205, 154, 103, 77, 51, 26 μM. To a 0.2 mL PCR tube, 24 μL of RBC buffer and 1 μL of compound stock solution were added, which gave final concentrations of […]. Positive and negative controls were prepared by adding 1 μL of DMSO to MilliQ water or RBC buffer, respectively to 0.2 mL PCR tube. To each PCR tube, 0.63 μL of the erythrocyte stock suspension was added and mixed by inversion. The samples were incubated at 37° C. for 2 hours. The samples were mixed by inversion and centrifuged at 10,000 g for 2 minutes. 15 μL of the supernatant from each sample was added to a 384-well place. Absorbances were read at 540 nm using a Biotek H1 Synergy Hybrid Reader (Wanooski, Vt.). Experiments were performed in triplicate and the reported MHC represents an average of three experiments.

Data set [7] concerns C. albicans SN250, C. albicans, C. krusei, C. glabrata, C. tropicalis, A. fumigatus 91, 1163, 1100. In words: Average MIC over the tested strains. Type of data set: cell-based.
The subject of data set [8] is rats. As to the kind of experiment: IV toxicity in rats (BUN, ALT/AST, mortality, Cmax). Type of data set: in vivo. To be noted: IV 2, 10, and 17.5 mg/kg (the highest dose tested). On the procedure: >100 mg of C2′epiAmB was prepared, formulated it as the corresponding deoxycholate complex, and evaluated this derivative head-to-head with AmB-deoxycholate for toxicity and efficacy in animal models.

The test system of data set [9] is C. albicans. In words: Murine model of invasive candidiasis, neutropenic ICR/Swiss mice. Conditions: single IP injection, deoxycholate complex, 16 mg/kg dose. In kind it is in vivo. From the text: Andes, D. et al., Antimicrobial agents and chemotherapy 2001, 45 (3), 922-6. In fact, the PD parameter that best correlates with outcome is Cmax-/MIC. The same was subsequently observed in a pulmonary model of invasive aspergillosis. Wiederhold, N. P. et al., Antimicrobial agents and chemotherapy 2006, 50 (2), 469-73.

The test system of data set [10] is A. fumigatus (AF293, A1163, ATC204305, AF91). In kind it is cell-based.
Data set [11] in a line: UV-Vis sterol binding assay. Here is the method: However, an alternative method was developed for reproducible formation of homogenous AmB and C2′epiAmB sterol sponge aggregates in vitro. Using these preparations, a quantitative UV-Vis and Principle Component (PCA) based assay for determining the apparent KDs for the binding of AmB and C2′epiAmB to ergosterol and cholesterol (FIGS. 5A-5D) was developed.
UV-Vis Binding Assay (FIG. 21A): The protocol for the sterol binding assay (UV-Vis) was developed in our lab. Compounds were dissolved in DMSO at a final concentration of 1 mM. Sterol were first dissolved in CHCl3 (>200 mM) and then diluted to 1 mM concentration with DMSO. To synthesize the complex 1 ul of compound solution was taken in a clean eppendorf tube (2 ml) and sterol solution (volume depends on the stoichiometry) was added to it and the volume was made up to 20 ul with DMSO. 0.98 ml of PBS buffer was added to the Eppendorf tube and mixed properly. The absorbance of the solution was measured after 30 mins of incubation.

The target of data set [12] is CYP2C9 (Homo sapiens, UniProt P11712). In words: CYP Inhibition. To be noted: human. Here is the method:
as §1

≈ marks a conversion by molar mass, not a printed value. A value given as a limit tells only on which side of the number the result lay.

Chain of CYP2D6 (P10635 whole entry): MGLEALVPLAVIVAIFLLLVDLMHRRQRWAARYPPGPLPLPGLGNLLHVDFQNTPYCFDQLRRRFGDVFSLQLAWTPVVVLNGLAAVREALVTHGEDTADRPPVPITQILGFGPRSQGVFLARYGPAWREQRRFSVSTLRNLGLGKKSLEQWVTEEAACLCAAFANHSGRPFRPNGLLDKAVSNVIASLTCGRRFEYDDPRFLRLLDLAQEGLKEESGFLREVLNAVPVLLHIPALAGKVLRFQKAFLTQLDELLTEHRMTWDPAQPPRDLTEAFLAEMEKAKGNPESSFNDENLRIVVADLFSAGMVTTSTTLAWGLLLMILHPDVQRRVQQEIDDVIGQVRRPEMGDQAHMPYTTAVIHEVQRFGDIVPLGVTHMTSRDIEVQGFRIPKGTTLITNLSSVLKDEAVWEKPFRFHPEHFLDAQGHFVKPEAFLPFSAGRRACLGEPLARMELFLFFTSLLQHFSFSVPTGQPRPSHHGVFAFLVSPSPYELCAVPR
Chain of CYP2C9 (P11712 whole entry): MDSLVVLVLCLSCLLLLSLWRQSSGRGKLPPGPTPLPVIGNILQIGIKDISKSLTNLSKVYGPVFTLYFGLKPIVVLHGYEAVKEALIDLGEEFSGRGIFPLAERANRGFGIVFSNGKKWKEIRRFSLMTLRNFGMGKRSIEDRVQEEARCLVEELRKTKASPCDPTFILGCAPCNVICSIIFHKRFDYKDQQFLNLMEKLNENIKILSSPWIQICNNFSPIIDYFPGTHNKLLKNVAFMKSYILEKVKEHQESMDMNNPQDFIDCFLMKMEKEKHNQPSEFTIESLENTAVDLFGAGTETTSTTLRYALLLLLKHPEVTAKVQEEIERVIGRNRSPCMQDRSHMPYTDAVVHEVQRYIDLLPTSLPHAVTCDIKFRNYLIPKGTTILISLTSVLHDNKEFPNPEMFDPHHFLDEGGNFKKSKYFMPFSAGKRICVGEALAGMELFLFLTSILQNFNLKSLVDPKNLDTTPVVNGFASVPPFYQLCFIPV

For orientation: inhibition means the change of the read-out against control, counted positive when it falls. A lower inhibition goes with a response near the control. With `C=C[C@H]1C[N@@]2CC[C@H]1C[C@@H]2[C@@H](O)c1ccnc2ccc(OC)cc12` [Quinidine, reference compound], the inhibition at 10 min, 3 µM in [1] worked out at 95.3%.
In general, MIC refers to the least concentration at which growth counts as inhibited. Regarding `C[C@@H]1[C@H](O)[C@@H](C)/C=C/C=C/C=C/C=C/C=C/C=C/C=C/[C@H](O[C@@H]2O[C@H](C)[C@@H](O)[C@H](N)[C@H]2O)C[C@@H]2O[C@](O)(C[C@@H](O)C[C@@H](O)[C@H](O)CC[C@@H](O)C[C@@H](O)CC(=O)O[C@H]1C)C[C@H](O)[C@H]2C(=O)O` [C2′epiAmB, C2′epi-Amphotericin B], in [2], the “Toxicity to human cells” value is recorded as “not human cells”. Also, the “MIC C. albicans SN250” value in [3] was 0.5 µM (≈ 0.462 µg/mL). The “Times less potent than AmB” value in [4] is given as 2-16 times. In data set [5], the “Ergosterol binding by ITC” value is reported as “bind ergosterol” and the “Cholesterol binding by ITC” value is on record as “not (detectably) cholesterol”. For the same molecule, the MHC in data set [6] was greater than 500 µM. In addition, the “Average MIC” value in data set [7] (Table 13, C16 amides of C2’epiAmB) turned out to be 9030 µM. Also, in data set [7] (average over the 8 listed strains), the MIC was greater than 6.844 µM. The “BUN, ALT/AST and mortality, rats” value in data set [8] was “no elevations in BUN or ALT/AST and no mortality”. For the same molecule, the “Fungal burden, murine invasive candidiasis” value in [9] is listed as “outstanding reductions in fungal burden”. In addition, the “Times less potent than AmB” value in data set [10] is listed as greater than 32 times. The “Cholesterol Binding” value in data set [11] is given as “No”.
Take `Nc1ccc(S(=O)(=O)Nc2ccnn2-c2ccccc2)cc1` [Sulfaphenazole, reference compound]: the inhibition at 10 min, 3 µM in [12] turned out to be 69.7%.
In the case of `CC1C=CC=CC=CC=CC=CC=CC=CC(OC2CC(N)C(O)C(C)O2)CC2OC(O)(CC(O)CC(O)C(O)CCC(O)CC(O)CC(=O)OC(C)C(C)C1O)CC(O)C2C(=O)O` (centres unmarked) [C2′deOAmB, reference compound], the “Toxicity to human cells” value in [2] was “nontoxic”. In addition, in data set [5], the “Ergosterol binding by ITC” value is “bind ergosterol” and the “Cholesterol binding by ITC” value is “not cholesterol”.

For the origin of these results see patent US20230016424A1, “HYBRID AMIDE DERIVATIVES OF AMPHOTERICIN B” (The Board of Trustees of the University of Illinois, priority 2019, published 2023).
